Experimental data reported in publication PMC4467886 (Archives of biochemistry and biophysics, 2008).

Target: T1, 5,10-methenyltetrahydrofolate synthetase (MTHFS) (Mus musculus, UniProt Q9D110)
T1 sequence (Q9D110 2-203): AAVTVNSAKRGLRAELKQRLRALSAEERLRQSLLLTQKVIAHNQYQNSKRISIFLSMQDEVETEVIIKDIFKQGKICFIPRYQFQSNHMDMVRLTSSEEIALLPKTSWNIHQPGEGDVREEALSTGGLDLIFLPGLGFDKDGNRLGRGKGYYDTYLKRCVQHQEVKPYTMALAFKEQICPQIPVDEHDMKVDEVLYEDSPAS
Assay: spectrophotometric MTHFS activity assay
Type: biochemical

SMILES	Ki [µM]
Nc1nc2[nH]cc(CCc3ccc(C(=O)N[C@@H](CCC(=O)O)C(=O)O)cc3)c2c(=O)[nH]1 [Pemetrexed]	48 ± 11
Nc1nc2c(c(=O)[nH]1)C[C@@H](CCc1ccc(C(=O)N[C@@H](CCC(=O)O)C(=O)O)cc1)CN2 [Lometrexol]	9 ± 3
Nc1nc2c(c(=O)[nH]1)C[C@@H](CCc1ccc(C(=O)N[C@@H](CCC(=O)O)C(=O)O)s1)CN2 [LY309887]	6 ± 1
